Results taken from BindingDB's records for doi:10.1021/jm801065q (Novartis Institutes For Biomedical Research, 2008).
pIC50: −log10 of the molar value.

What was measured:
[1] = Activity at CXCR4 in human Jurkat T cells assessed as inhibition of CXCL12-induced cell migration
[2] = Activity at CXCR4 in rat IR983F cells assessed as inhibition of CXCL12-induced cell migration

- pIC50 [1]: 7.24
- pIC50 [2]: 7.54
SMILES: C1=C(CS/C(=N\C2CCCCC2)NC2CCCCC2)N2CCN=C2S1 [1,3-dicyclohexyl-2-((5,6-dihydroimidazo[2,1-b]thiazol-3-yl)methyl)isothiourea]
